Tests used:
[1] = system: hyperuricemic gout subjects with moderate to severe renal impairment; experiment: Example 1 study: eGFR using the MDRD formula; type: in vivo, human; settings: for change in eGFR over time: prior use of ACEi; for change in eGFR levels over time: prior use of ARB; for change in mean eGFR levels: subjects with moderate renal impairment
Method: Following the Study Day 1 Visit, subjects returned to the clinic for study visits at Day 14, Months 1, 3, 6, 9 and for a final visit at Month 12/ET Visit. […] Gout flare assessments were collected at each visit. Estimated GFR by Modification of Diet in Renal Disease (MDRD) calculation was performed by the Central Laboratory at all visits. Blood pressure (clinic with standardized instruments) was measured throughout the study. Adverse events, electrocardiograms (ECGs), clinical laboratory tests, and vital signs were collected at each visit.
The secondary efficacy variables for this study included change from baseline to Month 12 in eGFR using the MDRD formula; and percentage of subjects with sUA<6.0 mg/dL at Month 12.
An ANCOVA analysis similar to the primary analysis was used for analysis of eGFR. Subgroup analyses were also summarized for eGFR as for the primary endpoint.

[2] = oral administration; cited from earlier work

**Q.** For `Cc1nc(-c2ccc(OCC(C)C)c(C#N)c2)sc1C(=O)O` [Febuxostat, 2-[3-cyano-4-(2-methylpropoxy)phenyl]-4-methylthiazole-5-carboxylic acid], which “eGFR using MDRD formula, Change from Baseline” value (“eGFR using MDRD formula, Change” below) ([1]; 30 mg BID, Day 14) is on record?
**A.** Its value is −0.99 mL/min/1.73 m^2.

**Q.** What about the “eGFR using MDRD formula, Mean (SD)” value ([1]; 30 mg BID, Day 14) of the same molecule?
**A.** Its value is 33.25 (8.042) mL/min/1.73 m^2.

**Q.** What about the “eGFR using MDRD formula, Change” value ([1]; 30 mg BID, Month 1) of the same molecule?
**A.** The value was −1.48 mL/min/1.73 m^2.

**Q.** What about the “eGFR using MDRD formula, Mean (SD)” value ([1]; 30 mg BID, Month 1) of the same molecule?
**A.** Its value is 32.99 (8.305) mL/min/1.73 m^2.

**Q.** And the “eGFR using MDRD formula, Change” value ([1]; 30 mg BID, Month 3)?
**A.** Its value is −0.72 mL/min/1.73 m^2.

**Q.** And the “eGFR using MDRD formula, Mean (SD)” value ([1]; 30 mg BID, Month 3)?
**A.** The value was 33.52 (9.005) mL/min/1.73 m^2.

**Q.** And the “eGFR Change from Baseline, LS mean (SE)” value ([1]; 30 mg BID, Month 6)?
**A.** Its value is 0.03 (0.955) mL/min/1.73 m^2.

**Q.** What about the “eGFR Change from Baseline, LS mean difference (SE) from placebo group” value ([1]; 30 mg BID, Month 6) of the same molecule?
**A.** The value was 1.74 (1.374) mL/min/1.73 m^2.

**Q.** And the “eGFR using MDRD formula, Change” value ([1]; 30 mg BID, Month 6)?
**A.** Its value is −0.06 mL/min/1.73 m^2.

**Q.** And the “eGFR using MDRD formula, Mean (SD)” value ([1]; 30 mg BID, Month 6)?
**A.** The value was 34.18 (8.004) mL/min/1.73 m^2.

**Q.** What about the “eGFR using MDRD formula, Change” value ([1]; 30 mg BID, Month 9) of the same molecule?
**A.** Its value is −0.91 mL/min/1.73 m^2.

**Q.** And the “eGFR using MDRD formula, Mean (SD)” value ([1]; 30 mg BID, Month 9)?
**A.** Its value is 33.33 (9.468) mL/min/1.73 m^2.

**Q.** What about the “eGFR Change from Baseline, LS mean (SE)” value ([1]; 30 mg BID, Month 12) of the same molecule?
**A.** Its value is 0.33 (1.172) mL/min/1.73 m^2.

**Q.** What about the “eGFR Change from Baseline, LS mean difference (SE) from placebo group” value ([1]; 30 mg BID, Month 12) of the same molecule?
**A.** The value was 2.38 (1.687) mL/min/1.73 m^2.

**Q.** And the “eGFR using MDRD formula, Change” value ([1]; 30 mg BID, Month 12)?
**A.** The value was 0.32 mL/min/1.73 m^2.

**Q.** And the “eGFR using MDRD formula, Mean (SD)” value ([1]; 30 mg BID, Month 12)?
**A.** Its value is 34.56 (9.382) mL/min/1.73 m^2.

**Q.** And the “eGFR Change from Baseline, LS mean (SE)” value ([1]; 30 mg BID, Month 12, listed as febuxostat)?
**A.** The value was 0.33 mL/min/1.73 m^2.

**Q.** And the “change in eGFR over time” value ([1]; 30 mg BID)?
**A.** The value was “slight improvements”.

**Q.** And the “change in eGFR levels over time” value ([1]; 30 mg BID)?
**A.** The value was “modest improvements”.

**Q.** And the “change in eGFR over time compared with placebo” value (“change in eGFR … with placebo” below) ([1]; 30 mg BID, sUA of 9.0 to <10.0 mg/dL at Baseline)?
**A.** The value was “small favorable trend”.

**Q.** What about the “change in eGFR … with placebo” value ([1]; 30 mg BID, sUA≥10.0 mg/dL at Baseline) of the same molecule?
**A.** The value was “small trend was apparent”.

**Q.** And the “change in eGFR … with placebo” value ([1]; 30 mg BID, serum creatinine 2.0 to <2.5 mg/dL at Baseline)?
**A.** The value was “small favorable trend”.

**Q.** What about the “change in mean eGFR levels” value ([1]; 30 mg BID, Month 12) of the same molecule?
**A.** Its value is “small improvement”.

**Q.** And the “eGFR using MDRD formula, Change” value ([1]; 40/80 mg QD, Day 14)?
**A.** Its value is −0.52 mL/min/1.73 m^2.

**Q.** And the “eGFR using MDRD formula, Mean (SD)” value ([1]; 40/80 mg QD, Day 14)?
**A.** Its value is 33.87 (10.259) mL/min/1.73 m^2.

**Q.** And the “eGFR using MDRD formula, Change” value ([1]; 40/80 mg QD, Month 1)?
**A.** Its value is −0.29 mL/min/1.73 m^2.

**Q.** And the “eGFR using MDRD formula, Mean (SD)” value ([1]; 40/80 mg QD, Month 1)?
**A.** Its value is 33.91 (10.482) mL/min/1.73 m^2.

**Q.** And the “eGFR using MDRD formula, Change” value ([1]; 40/80 mg QD, Month 3)?
**A.** The value was 0.14 mL/min/1.73 m^2.

**Q.** What about the “eGFR using MDRD formula, Mean (SD)” value ([1]; 40/80 mg QD, Month 3) of the same molecule?
**A.** The value was 34.34 (10.474) mL/min/1.73 m^2.

**Q.** What about the “eGFR Change from Baseline, LS mean (SE)” value ([1]; 40/80 mg QD, Month 6) of the same molecule?
**A.** Its value is 0.04 (0.969) mL/min/1.73 m^2.

**Q.** And the “eGFR Change from Baseline, LS mean difference (SE) from placebo group” value ([1]; 40/80 mg QD, Month 6)?
**A.** The value was 1.75 (1.383) mL/min/1.73 m^2.

**Q.** What about the “eGFR using MDRD formula, Change” value ([1]; 40/80 mg QD, Month 6) of the same molecule?
**A.** The value was −0.03 mL/min/1.73 m^2.

**Q.** What about the “eGFR using MDRD formula, Mean (SD)” value ([1]; 40/80 mg QD, Month 6) of the same molecule?
**A.** The value was 34.18 (11.067) mL/min/1.73 m^2.

**Q.** And the “eGFR using MDRD formula, Change” value ([1]; 40/80 mg QD, Month 9)?
**A.** Its value is 1.18 mL/min/1.73 m^2.

**Q.** What about the “eGFR using MDRD formula, Mean (SD)” value ([1]; 40/80 mg QD, Month 9) of the same molecule?
**A.** The value was 35.39 (10.930) mL/min/1.73 m^2.

**Q.** And the “eGFR Change from Baseline, LS mean (SE)” value ([1]; 40/80 mg QD, Month 12)?
**A.** Its value is −0.86 (0.190) mL/min/1.73 m^2.

**Q.** And the “eGFR Change from Baseline, LS mean difference (SE) from placebo group” value ([1]; 40/80 mg QD, Month 12)?
**A.** Its value is 1.19 (1.698) mL/min/1.73 m^2.

**Q.** What about the “eGFR using MDRD formula, Change” value ([1]; 40/80 mg QD, Month 12) of the same molecule?
**A.** Its value is −0.82 mL/min/1.73 m^2.

**Q.** What about the “eGFR using MDRD formula, Mean (SD)” value ([1]; 40/80 mg QD, Month 12) of the same molecule?
**A.** Its value is 33.38 (11.949) mL/min/1.73 m^2.

**Q.** What about the “eGFR Change from Baseline, LS mean (SE)” value ([1]; 40/80 mg QD, Month 12, listed as febuxostat) of the same molecule?
**A.** The value was −0.086 mL/min/1.73 m^2.

**Q.** And the “change in eGFR over time” value ([1]; 40/80 mg QD)?
**A.** Its value is “slight improvements”.

**Q.** And the “change in eGFR … with placebo” value ([1]; 40/80 mg QD, sUA of 9.0 to <10.0 mg/dL at Baseline)?
**A.** The value was “small favorable trend”.

**Q.** And the “change in eGFR … with placebo” value ([1]; 40/80 mg QD, serum creatinine 2.0 to <2.5 mg/dL at Baseline)?
**A.** The value was “small favorable trend”.

**Q.** What about the “change in eGFR levels over time” value ([1]; 40/80 mg) of the same molecule?
**A.** Its value is “moderate to large decreases”.

**Q.** What about the “change in mean eGFR levels” value ([1]; 40/80 mg, Month 12) of the same molecule?
**A.** Its value is “small decreases”.

**Q.** And the “orally administered febuxostat eliminated in the urine as unchanged drug” value [2]?
**A.** The value was less than 4%.

— patent publication US20180311217A1, “METHODS OF TREATMENT AND COMPOSITIONS WITH XANTHINE OXIDASE INHIBITORS” (Takeda Pharmaceuticals U.S.A., Inc., priority 2013, published 2018)
